Measurements as given in patent US9051245B2 (UHA MIKAKUTO CO., LTD., priority 2011, dated 2015).
Read-outs that look alike come from different tables or passages of the source.

Legend:
[1] = test system: HL-60 cells (human myeloid leukemia cells); assay: Cancer cell growth inhibitory action using HL-60 cells (Cell counting kit-8); format: cell-based; conditions: for IC50: HL-60 cells, 24 hours, read-out: Cell growth inhibition ability (IC50); for Effect of inhibiting the growth of the HL-60 cells compared with resveratrol and E-viniferin: relative to resveratrol and ε-viniferin
Method: Next, in order to see the effect of each compound to cancer cells, the cancer cell growth inhibitory action using HL-60 cells (human myeloid leukemia cells) was tested.
As culturing of cells, one in which 4 mM glutamine (L-glutamine, Sigma-Aldrich, “G8540-100G”) and 10% FBS (fetal bovine serum, Biological Industries, “04-001-1A”) were added to a high nutrient medium […] (Sigma-Aldrich, “R0883”) was used as a culture solution, and then subculture was performed. For a test, a 96-well plate for cell culture (Corning, “3595”) was used. The number of cells was adjusted on the test day in such a manner that the number of the HL-60 cells was 5×10^5 cell/mL, and then seeded in the 96-well plate with 100 μL/well.
For the preparation of the samples, each compound was dissolved with DMSO (dimethylsulfoxide, Wako Pure Chemical Industries, “046-21981”), and then the final concentration in the culture solution of the HL-60 cells of the samples was adjusted to be 10 μM, 30 μM, 100 μM, and 300 μM, respectively, and then the test was started.
For the detection of the cell growth inhibitory effect, the detection was performed by a MTT method using “Cell counting kit-8” (Dojin Chemical Laboratory, “347-07621”). More specifically, 24 hours after starting the test, 10 μL of the detection liquid of the cell counting kit-8 was added to each well, and then sufficiently stirred. Thereafter, a shading reaction was performed, the absorbance at 450 nm was measured using a plate reader (Biorad Laboratories, “BIO-RAD Model 680”), and then the obtained data were treated. The cell viability is a value obtained by calculation under the conditions where the number of survival cells of the cells treated with the culture solution to which DMSO was added was 100% and the number of survival cells of the cells under the concentration of each compound was defined as a relative value. From the relationship between each sample concentration and the cell viability, the concentration IC50 (50% inhibitory concentration) which inhibits the cell growth by 50% was calculated.

[2] = DPPH radical elimination method (antioxidation); conditions: for IC50: DPPH radical, 20 minutes, absorbance 520 nm, read-out: Radical capturing ability (IC50); for Antioxidation activity compared with resveratrol: DPPH, relative to resveratrol
Method: A test of the antioxidation effect of the UHA4002 and 4003 was performed. The test was performed by adopting a DPPH (1,1-diphenyl-2-picrylhydrazyl) radical elimination method. A technique thereof is mentioned below.
About the main experiment method of the DPPH radical elimination method, the test was advanced with reference to a technique described in “Methods for Functional Food Analysis” (Published by Korin Publishing Co., Ltd., edited by Kazuki SHINOHARA, Tateo SUZUKI, and Shuichi KAMINOGAWA, 2000). […] The DPPH reaction liquid was adjusted in such a manner as to be 400 μM DPPH (Sigma-Aldrich “D9132”), 50 mM MES (2-morpholinoethanesulphonic acid, Dojindo Laboratories, “345-01625”), and 75% ethanol. The reaction was performed in a 96-well plate (As One, “1-6776-03”), and 100 μL of the samples and 100 μL of the DPPH reaction liquid were placed, and then mixed. The mixture was allowed to stand still in a shading state for 20 minutes, and then each absorbance at 520 nm was measured with a plate reader.
The IC50 refers to a concentration of each sample which is considered to have an ability of eliminating 50% DPPH radical.

[3] = test system: Bacillus subtilis (NBRC 3134); assay: Antibacterial paper disc method; format: cell-based; conditions: 24 hours, read-out: Diameter of inhibition zone; for zone of inhibition at 1000 µM: NBRC3134, added concentration 1 mM; for zone of inhibition at 5000 µM: NBRC3134, added concentration 5 mM; for zone of inhibition at 10000 µM: NBRC3134, added concentration 10 mM
Method: An assay was performed by a paper disc method for the purpose of confirming the antibacterial action of the UHA4002 and 4003. The paper disc method is a known technique capable of easily investigating the antibacterial activity of a test substance by creating each inhibition zone of the test substance. The assay was performed using, as a fungus body, Bacillus subtilis (NBRC 3134) purchased from National Institute of Technology and Evaluation Biological Resource Center NBRC. For the raise of a fungus body and a culture method thereof, No. 702 which is a culture solution specified by NBRC was adjusted and used. The culture was performed at 37° C. The experiment method of the paper disc method ((Agar) culture solution, Culture method, Test preparation, Test method) was performed in accordance with a BSAC standardization disc sensitivity test method (8th edition). […] As a positive control, chloramphenicol (Wako Pure Chemical Industries, “036-10571”) of an antibacterial component to be used as a pharmaceutical agent was dissolved in DMSO and adjusted and, as a negative control, DMSO was used. The samples thus adjusted were immersed in the paper disc, disposed on an agar medium in which bacillus subtilis was seeded, cultured, and then, after 24 hours later, the measurement of the inhibition zone was performed. The reliability of this example is confirmed from the size of the inhibition zone by chloramphenicol.

[4] = test system: SCC-4 cells (human oral cancer cells); assay: Oral cancer cell growth inhibitory action using SCC-4 cells (Cell counting kit-8); format: cell-based; conditions: read-out: Cell growth inhibition ability (IC50)
Method: For culturing of the SCC-4 cells, a DMEM/F-12 (1:1) culture medium (manufactured by GIBCO) containing 400 ng/mL hydrocortisone (manufactured by Sigma-Aldrich Japan), 1% antibiotic-antimycotic (manufactured by GIBCO), and 10% FBS (Fetal Bovine Serum, manufactured by ATCC) was used. For the test, a collagen I coat 96-well plate for cell culture (manufactured by Japan BD) was used, and SCC-4 cells whose number of cells was adjusted to be 5×10^5 cells/mL were seeded with 100 μL/well. The cells were cultured under the conditions of 37° C. and 5% CO2 for 24 hours, and were used for the test in a confluent state of 80% or higher.
With respect to the sample preparation, each compound was dissolved with DMSO, and then prepared in such a manner as to be 0.63 mM, 1.25 mM, 2.5 mM, 5 mM, and 10 mM. The samples were added in such a manner that the final concentration in the SCC-4 cell culture solution was 6.3 μM, 12.5 μM, 25 μM, 50 μM, and 100 μM, and then the test was started. The sample to which an equivalent amount of only DMSO as the solvent was added was used as a negative control.
The number of viable cells was quantified by an MTT method using a “Cell counting kit-8” in the same manner as in Example 3, and the concentration IC50 at which the cell growth is inhibited by 50% was calculated.

[5] = Physicochemical properties: solubility in solvents
[6] = molecular target: rat intestine derived lipase; assay: Lipase inhibitory action test (Lipase kit S); format: biochemical; conditions: 30° C., 10 minutes reaction
Method: As lipase, one obtained by suspending 100 mg of rat derived intestine acetone powder (manufactured by Sigma-Aldrich Japan) in 1 mL of 100 mM citric acid buffer (pH 6.0), stirring the same at 4° C. for 1 hour, centrifuging the same (at 15000 rpm for 45 minutes at 4° C.) to obtain a supernatant, and then diluting the supernatant by 1500 times was used as a lipase solution.
With respect to the sample preparation, those obtained by dissolving each compound with DMSO, and then preparing in such a manner as to be 0.1 mM, 0.5 mM, 1 mM, 2 mM, and 4 mM were used.
For measuring the activity, a “Lipase kit S” (Trade name, manufactured by Dainippon Pharmaceutical Co., Ltd.) was used. First, in accordance with a preparation method described in the catalog of the Lipase kit S, a color developing liquid was prepared. Reaction liquids in which 70 μL, of the color developing liquid, 2 μL of an esterase inhibitor, 10 μL of the lipase solution, and 10 μL of the samples (Final concentration: 10 μM, 50 μM, 100 μM, 200 μM, 400 μM, and 1000 μM) were mixed were prepared, preincubated at 30° C. for 5 minutes, and then 8 μl of a substrate solution described in the catalog was added. Then, a reaction was started. After reacting for 10 minutes, 150 μL of a reaction stop liquid prepared in accordance with the preparation method described in the catalog of the Lipase kit S was added to stop the reaction. […]

SMILES	IC50 [1]	IC50 ([1]; Homo sapiens)	Effect of inhibiting the growth of the HL-60 cells compared with resveratrol and E-viniferin [1]	IC50 [2]	Antioxidation activity compared with resveratrol [2]	zone of inhibition at 1000 µM [3]	zone of inhibition at 5000 µM [3]	zone of inhibition at 10000 µM [3]	IC50 [4]	Solubility ([5]; Chloroform)	Solubility ([5]; DMSO)	Solubility ([5]; Ethanol)	Solubility ([5]; Ethyl acetate)	Solubility ([5]; Methanol)	Solubility ([5]; Water)	IC50 [6]	zone of inhibition at 50000 µM ([3]; NBRC3134, added concentration 50 mM)
Oc1ccc(/C=C/c2cc(O)cc3c2[C@@H](c2cc(O)cc(O)c2)[C@H](c2ccc(O)cc2)O3)cc1 [ε-viniferin, reference compound]	60 µM	–	–	–	–	–	–	–	–	–	–	–	–	–	–	–	–
Oc1ccc(/C=C\c2cc(O)c3c(c2)-c2c(O)cc(O)cc2CC3c2ccc(O)cc2)cc1 (single isomer, unassigned) [UHA 4003]	–	30 µM	twice or higher	50 µM	as high as twice	8.3 mm	10.5 mm	11.8 mm	32.4 µM	Poorly soluble	Soluble	Soluble	Poorly soluble	Soluble	Poorly soluble	–	–
Oc1ccc(/C=C/c2cc(O)cc3c2C(c2ccc(O)cc2)Cc2cc(O)cc(O)c2-3)cc1 (single isomer, unassigned) [UHA 4002]	–	30 µM	twice or higher	50 µM	as high as twice	8.5 mm	11 mm	13.3 mm	52.1 µM	Poorly soluble	Soluble	Soluble	Poorly soluble	Soluble	Poorly soluble	311 µM	–
Oc1ccc(/C=C/c2cc(O)cc(O)c2)cc1 [Resveratrol, trans-resveratrol, reference compound]	–	80 µM	–	–	–	0 mm	0 mm	0 mm	> 100 µM	–	–	–	–	–	–	> 1000 µM	10 mm
